Where a name gives a salt, the structure may show the parent alone. Read-outs that look alike come from different tables or passages of the source.
Assays:
[1] = test system: γH2AX in Mz-ChA-1 cholangiocarcinoma cells; assay: Western blotting of phosphorylated H2AX (Ser139); format: cell-based, human; settings: for increase in γH2AX levels compared the control: doxorubicin 20 µM
Description: (§5) To perform the analysis, the cells were seeded in 6-well plates, then subjected to the treatment with β-caryophyllene (50 µM) and doxorubicin (20 µM), alone and in combination, for the required time exposure, then harvested by centrifugation and washed in PBS. A lysis buffer, containing SDS (2% w/w), Tris-hydrochloride (20 mM; pH 7.4), urea (2 M), glycerol (10% w/w), sodium orthovanadate (2 mM), DTT (10 mM) and a protease inhibitors cocktail (1:100 dilution) was used to achieve the cell protein separation. The separated proteins were resolved by SDS-PAGE 10% TGX FastCast™ Acrylamide gel (BioRad, Segrate, Italy) and transferred on PVDF membranes (BioRad, Segrate, Italy) by using a Trans-Blot® Turbo™ Transfer System (BioRad, Segrate, Italy). The membranes were blocked with a 0.2% w/v I-block (Thermo Fisher Scientific, Rodano, Italy) in Tris-buffered saline containing 0.05% Tween-20 (TBS-T), then stained with the desired primary antibodies. […] After rinsing three times in TBS-T to remove unbound primary antibody, the membranes were incubated for an additional hour with the appropriate horseradish peroxidase- or alkaline phosphatase-conjugated secondary antibody (Jackson ImmunoResearch, Pero, Italy). […] Each experiment was performed at least in three replicates.

[2] = test system: γH2AX in H69 noncancerous cholangiocytes; assay: Western blotting of phosphorylated H2AX (Ser139); format: cell-based; settings: for increase of γH2AX with respect to control: doxorubicin 20 µM
Description: as §5

[3] = test system: Mz-ChA-1 cholangiocarcinoma cells; assay: Cell cycle analysis (PI flow cytometry); format: cell-based, human; settings: Mz-ChA-1, 24 h
Description: (§1) Analysis of cell cycle progression was performed by applying a one parameter flow cytometric method, in which cell cycle distribution was evaluated on the basis of DNA content. Briefly, after treatments, the harvested cells (about 1 × 10^6 cells) were fixed in ice cold 70% ethanol and stored for at least 2 h at 4 °C. Thereafter, the ethanol-suspended cells were separated by centrifugation, rinsed in PBS, then resuspended in a propidium iodide (PI) staining solution, containing 0.1% v/v Triton X-100, 10 μg/mL PI and 100 μg/mL DNase-free RNase A in PBS and stored at 4 °C in the dark for at least 30 min. For each sample, the mean fluorescence of PI (maximum excitation of PI bound to DNA at 536 nm; emission at 617 nm) in 50,000 cells was measured using a BD Accuri^TM C6 flow cytometer FL2 channel (BD Biosciences, Milan, Italy) and deconvolution of the DNA content frequency histograms, to estimate the proportions of cells in the respective phases of the cycle, was made by Modfit 4.1 software (Verity Software House, Topsham, ME, USA).

[4] = test system: H69 noncancerous cholangiocytes; assay: Cell cycle analysis (PI flow cytometry); format: cell-based; settings: H69, 24 h
Description: as §1

[5] = test system: ROS in Mz-ChA-1 cholangiocarcinoma cells; assay: Intracellular ROS determination (DCFH-DA); format: cell-based, human; settings: β-caryophyllene 50 µM, doxorubicin 20 µM
Description: (§2) To perform the assay, the cells, seeded in 6-well plates (1 × 10^6 cells/well), were treated with the tested substances (β-caryophyllene, 50 µM; doxorubicin, 20 µM) for the required time exposure, then the ROS levels were measured in the pellets by the 2,7-dichlorofluorescein diacetate assay (DCFH-DA), as previously reported. […] In each experiment, a vehicle control, corresponding to a basal ROS level, were included too. For all the treatments, the mean DCF fluorescence of 50,000 cells was determined by a BD Accuri^TM C6 Software version 1.0.264.21 (BD Biosciences, Milan, Italy).

[6] = test system: ROS in H69 noncancerous cholangiocytes; assay: Intracellular ROS determination (DCFH-DA); format: cell-based; settings: H69, 24 h, β-caryophyllene 50 µM, doxorubicin 20 µM
Description: as §2

[7] = test system: glutathione in Mz-ChA-1 cholangiocarcinoma cells; assay: HPLC determination of intracellular GSH and GSSG; format: cell-based, human
Description: (§3) Intracellular levels of reduced (GSH) and oxidized (GSSG) glutathione were measured by HPLC-UV, as previously described. Briefly, after treatments with β-caryophyllene (50 µM) and doxorubicin (20 µM), the harvested cells (1 × 10^6 cells) were suspended in 10% ice-cold TCA and centrifuged for 15 min at 9000× g, then supernatant was collected and GSH and GSSG measured by HPLC with UV detection at 215 nm. The separation was achieved using a InfinityLab poroshell 120 EC-C18 column (3 × 150 mm, 2.7 μm) at a flow rate of 0.8 mL/min, using the following elution gradient: 0–3 min 100% A + 0% B, 3–10 min from 100% A to 100% B. The mobile phase A contained 0.1% trifluoroacetic acid in water, whereas mobile phase B was 0.1% trifluoroacetic acid in water/acetonitrile (93:7). Under our chromatographic conditions, retention times of GSH and GSSG were 2.58 min and 7.01 min, respectively.

[8] = test system: glutathione in H69 noncancerous cholangiocytes; assay: HPLC determination of intracellular GSH and GSSG; format: cell-based; settings: H69, 24 h
Description: as §3

[9] = test system: Mz-ChA-1 cholangiocarcinoma cells; assay: Annexin-V-FITC fluorescence microscopy, semiquantitative; format: cell-based, human; settings: Mz-ChA-1, 24 h, β-caryophyllene 50 µM, doxorubicin 20 µM
Description: (§4) Apoptosis extent was evaluated by Annexin-V staining (Annexin V Apoptosis detection kit, Santa Cruz Biotechnology, DBA, Milan, Italy), which is known to specifically binds phosphatidylserine, a […] which is normally embedded in the inner leaflet of plasma membrane and externalized during apoptosis, as a result of the membrane changes. Therefore, apoptotic cells can be directly detected through their staining with the fluorochrome-conjugated Annexin V. The analysis was performed by both fluorescence microscopy and flow cytometry in order to both visualize the event and to achieve a quick and accurate quantification of apoptotic cells.

[10] = test system: H69 noncancerous cholangiocytes; assay: as above; format: cell-based; settings: H69, 24 h, β-caryophyllene 50 µM, doxorubicin 20 µM
Description: as §4

[11] = test system: phospho(Tyr705)-STAT3 in Mz-ChA-1 cells; assay: Western blotting of phospho(Tyr705)-STAT3; format: cell-based, human; settings: for increase of phospho(Tyr705)-STAT3 compared the control: β-caryophyllene 50 µM, doxorubicin 20 µM
Description: as §5

[12] = test system: phospho(Tyr705)-STAT3 in H69 cholangiocytes; assay: Western blotting of phospho(Tyr705)-STAT3; format: cell-based; settings: for enhancement of basal phospho(Tyr705)-STAT3 expression: doxorubicin 20 µM
Description: as §5

[13] = test system: Mz-ChA-1 cholangiocarcinoma cells
Description: (§6) To perform the assay, the cells were grown for 24 h into 96-well microplates (2 × 10^4 cells/well), then treated with the test substances and incubated according to the applied protocol schedule [26]. At the end of incubation, the cytotoxicity was measured by the 3-[4,5-dimethylthiazol-2-yl] -2,5-diphenyl tetrazolium bromide (MTT) assay, using an Epoch Microplate Spectrophotometer (BioTek, AHSI, Milan Italy). At least three biologic replicates, in which each concentration was tested in triplicate, were made. Comparing the number of viable cells in each treatment respect to the vehicle control allows to measure a cell viability reduction. The effect of the treatment was considered as cytotoxic when at least a 30% lowering of cell viability occurred [59].
(§7) In the single long-term schedule, confluence cells were exposed to the test substances for 24 h and 72 h (Figure S1), then the cytotoxicity was measured by the MTT assay. Under the metronomic treatment, the cells were subjected to a short and/or repeated exposure of 2 h to the test substances (Figure S2), as follow: 1) single treatment, the cells were treated for 2 h, then washed and incubated for 72 h; 2) two-repeated treatments, the cells were exposed to the test substances for 2 h, then washed and incubated for functional recovery for further 2 h. After recovering, the cells were further treated with the test substances for 2 h, washed and incubated for 72 h. Finally, the cytotoxicity was measured by the MTT assay as described above.
(§8) The type of interaction between β-caryophyllene and doxorubicin, i.e., synergy, additivity or antagonism, was evaluated by measuring three parameters: reversal ratio value (RR), combination index (CI) and isobolographic analysis (IB) [24].
(§9) RR represents the cytotoxicity enhancement ratio and allows to quantify the efficacy increase of a drug (A) in the presence of a chemosensitizing agent (B), by relating the IC50 of A alone (CA) and that of IC50 of its combination with B (CA+B).
(§10) CI gives a quantitative measure of the interaction and is calculated as follow: (CA,X/ICX,A) + (CB, X/ICX,B), in which CA,X and CB,X are the concentrations of A and B at the IC50 value of their combination, whereas ICX,A and ICX,B are the IC50 values of the substances alone. When the CI value was equal to, less or higher than 1, the interaction between test substances was evaluated as additivity, synergism and antagonism, respectively.
(§11) The isobolographic analysis, displaying the extent of the interaction between drug A and the potential chemosensitizer B, was obtained by a two-coordinate plot, wherein the IC50 concentrations of A and B were plotted on the x and y axes, corresponding to (CA, 0) and (C0, B), respectively. The substance concentrations used in the combination (CA+B) were placed in the same plot. A nonlinear regression analysis was carried out by GraphPad Prism™ 6.00 software, in order to connect the IC50 value of each drug alone and that of the combination, whereas the line connecting CA and CB represented an additive interaction. A synergism between A and B occurred when CA+B were located below the line, while the interaction was antagonistic when the values were above the line [60].

[14] = test system: Mz-ChA-1 cholangiocarcinoma cells; assay: cells; settings: Homo sapiens, combination with 50 µM β-caryophyllene
Description: as §6, §7, §8, §9, §10, §11

[15] = β-caryophyllene 50 µM, doxorubicin 20 µM
[16] = 24 h, read-out: IC50 (CL), Mz-ChA-1, 24 h exposure
[17] = 72 h, read-out: IC50 (CL), Mz-ChA-1, 72 h exposure
[18] = read-out: IC50 (CL), Mz-ChA-1, double repeated 2 h exposure + 72 h recovery
[19] = read-out: IC50 (CL), Mz-ChA-1, single 2 h exposure + 72 h recovery

## COc1cccc2c1C(=O)c1c(O)c3c(c(O)c1C2=O)C[C@@](O)(C(=O)CO)C[C@@H]3O[C@H]1C[C@H](N)[C@H](O)[C@H](C)O1 [Doxorubicin, doxorubicin hydrochloride]
[1]; Mz-ChA-1, 2 h
  increase in γH2AX levels compared the control: about 60 fold
[1]; Mz-ChA-1, 24 h
  increase in γH2AX levels compared the control: ~140 fold
[2]; H69, 2 h
  increase of γH2AX with respect to control: ~40 fold
[2]; H69, 24 h
  increase of γH2AX with respect to control: ~200 fold
[3]; doxorubicin 20 µM
  increase of cell accumulation in S-phase compared the control: ~1.6 fold
  reduction of G0/G1 phase: at least 4 fold
[3]; [15]
  increase in G2/M phase vs. control: about 1.4 fold
[4]; doxorubicin 20 µM
  increase of cell accumulation in S-phase compared the control: ~1.8 fold
  reduction of G0/G1 phase: ≥ 30 fold
[5]; Mz-ChA-1, 2 h
  increase of ROS levels with respect to the control: ~7 fold
[5]; Mz-ChA-1, 24 h
  increase of ROS levels with respect to the control: ~4 fold
[6]
  enhancement in ROS amount compared the control: at least 3 fold
[7]; Mz-ChA-1, 2 h
  lowering of GSH/GSSG ratio: 1.3 fold
[7]; Mz-ChA-1, 2 h, doxorubicin 20 µM
  change in GSH: not significantly decreased
[7]; Mz-ChA-1, 24 h
  change in GSSG: without changes in the GSSG amount
  lowering of GSH/GSSG ratio: 4 fold
[7]; Mz-ChA-1, 24 h, doxorubicin 20 µM
  reduction of GSH: at least 3 fold
[8]
  change in the amount of GSSG: slightly but not significantly reduced
  depletion of GSH: ~2 fold
  lowering of basal GSH/GSSG ratio: ~1.6 fold
[9]
  Annexin V Mz-ChA-1 (semiquantitative apoptosis score): + (11%–30% = +)
[10]
  Annexin V H69 (semiquantitative apoptosis score): + (11%–30% = +)
[11]; Mz-ChA-1, 2 h
  increase of phospho(Tyr705)-STAT3 compared the control: ~100 fold
[11]; Mz-ChA-1, 24 h
  increase of phospho(Tyr705)-STAT3 compared the control: ~20 fold
[11]; doxorubicin-promoted, Mz-ChA-1 vs H69
  higher phospho(Tyr705)-STAT3 expression in Mz-ChA-1 with respect H69 cholangiocytes: ~10 fold
[12]; H69, 2 h
  enhancement of basal phospho(Tyr705)-STAT3 expression: ~6 fold
[12]; H69, 24 h
  enhancement of basal phospho(Tyr705)-STAT3 expression: ~10 fold
[13]
  cytotoxicity increase produced by the double repeated exposure: 10%
[13]; Mz-ChA-1
  IC50 lowering, double repeated 2 h metronomic vs 24 h protocol: ~2.4 fold
  IC50 lowering, single 2 h metronomic vs 24 h protocol: about 1.4 fold
  IC50 reduction, double short exposure vs single 2 h treatment: 1.7 fold
  anticancer power under metronomic conditions lower than after 72 h: 3- to 5 fold
  potency increase, 72 h with respect to 24 h (IC50 comparison): at least 7 fold
[13]; Mz-ChA-1, 1 µM, 72 h
  inhibition of cell viability: about 20%
[13]; Mz-ChA-1, 10 μM, 2 h exposure protocol
  inhibition of cell viability: ≥ 35%
[13]; Mz-ChA-1, 10 µM, 24 h
  inhibition of cell viability: about 20%
[13]; Mz-ChA-1, 10 µM, 72 h
  inhibition of cell viability: about 80%
[13]; Mz-ChA-1, 100 μM, both metronomic schedules
  maximum inhibition of cell viability: 80%
[13]; Mz-ChA-1, 200 µM, 24 h
  maximum inhibition of cell viability: about 80%
[13]; Mz-ChA-1, concentrations lower than 10 μM, 2 h exposure protocol
  cell viability reduction vs. control: < 20%
[14]; [16]
  IC50: 27.8 µM
[14]; [17]
  IC50: 3.8 µM
[14]; [18]
  IC50: 11.6 µM
[14]; [19]
  IC50: 19.8 µM

## C=C1CC/C=C(\C)CC[C@@H]2[C@@H]1CC2(C)C [β-Caryophyllene, β-caryophyllene]
[1]; Mz-ChA-1, 50 µM, 2 h and 24 h
  effect on γH2AX levels: null effects
[2]; H69, 50 µM, 2 h and 24 h
  effect on γH2AX levels: null effects
[3]; β-caryophyllene 50 µM
  increase in G0/G1 phase vs. control: about 1.2 fold
[3]; [15]
  increase in G2/M phase vs. control: about 1.5 fold
[4]; β-caryophyllene 50 µM
  reduction of G2/M phase vs. control: about 1.4 fold
[5]; Mz-ChA-1, 2 h
  increase of ROS levels with respect to the control: about 1.6 fold
[5]; Mz-ChA-1, 24 h
  increase of ROS levels with respect to the control: ~1.2 fold
[6]
  enhancement in ROS amount compared the control: 1.3 fold
[7]; Mz-ChA-1, 24 h
  change in GSSG: without changes in GSSG
[7]; Mz-ChA-1, 24 h, β-caryophyllene 50 µM
  increase of GSH levels vs. control: about 2.5 fold
[7]; Mz-ChA-1, β-caryophyllene alone
  increase of GSH/GSSG ratio: about 2 fold
[8]
  change in the amount of GSSG: slightly increased
[8]; β-caryophyllene 50 µM
  basal GSH/GSSG ratio: retained
  enhancement of GSH: ~1.5 fold
[9]
  Annexin V Mz-ChA-1 (semiquantitative apoptosis score): +/- (6%–10% = +/−)
[10]
  Annexin V H69 (semiquantitative apoptosis score): – (0%–5% = negative)
[11]; Mz-ChA-1, 2 h
  increase of phospho(Tyr705)-STAT3 compared the control: ≥ 3 fold
[11]; Mz-ChA-1, 24 h
  increase of phospho(Tyr705)-STAT3 compared the control: ≥ 3 fold
[12]; H69, β-caryophyllene 50 µM alone
  effect on phospho(Tyr705)-STAT3 expression: did not affected the protein expression
[13]; Mz-ChA-1
  fold more toxic after 72 h with respect to the other schedules (IC50 comparison): 1.4- to 2 fold
[13]; Mz-ChA-1, 50 μM
  reduction of cell viability: lower than 20%
[13]; Mz-ChA-1, concentrations higher than 50 μM, 24 h and 72 h
  inhibition of cell viability vs. control: about 20%
[13]; Mz-ChA-1, metronomic schedule
  nontoxic up to (concentration): up to 125 μM
[14]; [16]
  IC50: 124 µM
[14]; [17]
  IC50: 90 µM
[14]; [18]
  IC50: 140 µM
[14]; [19]
  IC50: 172 µM

Reference: paper PMC7226839, “Modulation of STAT3 Signaling, Cell Redox Defenses and Cell Cycle Checkpoints by β-Caryophyllene in Cholangiocarcinoma Cells: Possible Mechanisms Accounting for Doxorubicin Chemosensitization and Chemoprevention” (Cells, 2020)
